Data reported in US9440941B2, “Substituted chroman-6-yloxy-cycloalkanes and their use as pharmaceuticals” (SANOFI, priority 2013, dated 2016).

Key:
human NCX1 = target: T1, human NCX1 (Homo sapiens, UniProt P32418); assay: Inhibition of Ca2+ efflux out of cells (NCX1 forward mode), FLIPR calcium assay; format: cell-based; settings: CHO cells stably expressing human NCX1; Ca2+ efflux after Ionomycin; read-out: NCX1fw IC50 (inhibition of NCX1 in forward mode)
T1 construct: expressed in transfected cells
Description: The sodium/calcium exchanger NCX1 can transport calcium ions and sodium ions through the cell membrane. The transport is an exchange of Ca^2+ and Na^+ in two directions depending on membrane potential and ion gradients. At the first direction, named “forward mode” or “calcium export mode”, Ca^2+ is transported out of the cell and Na^+ is transported into the cell. At the other direction, named “reverse mode” or “calcium import mode”, the transport directions are vice versa. The effect of the compounds of the invention on NCX1 was determined in CHO cells stably expressing human NCX1 (gene symbol SLC8A1; cf. WO 2009/115238). The assay is based on the monitoring of intracellular Ca^2+ concentrations using a calcium-sensitive fluorescence dye which is detected by means of a FLIPR device (Fluorimetric Imaging Plate Reader, Molecular Devices).
Assay Technology—Forward Mode
The assay is based on the monitoring of intracellular Ca^2+ concentrations using the PBX Calcium Assay Kit from BD (Becton, Dickinson and Company) with calcium indicator dye 51-9000177BKa (BD, 640177). CHO cells expressing NCX1 were loaded with the dye, and after a preincubation period with the test compound, lonomycin (Calbiochem, 407950) was added. lonomycin is an ionophor for Ca^2+ ions mediating an increase of intracellular Ca^2+ ions. Consequently, intracellular Ca^2+ ions are exchanged against extracellular Na^+ ions (Ca^2+ efflux, forward mode). The decrease of intracellular Ca^2+ ions was detected by measuring the fluorescence of the calcium indicator dye at a wavelength of 520 nm by a FLIPR device.
Briefly, similarly as for the reverse mode, for the forward mode transport assay 18000 cells per well were seeded into a 96 well microplate (Corning COSTAR 3904) and incubated overnight in culture medium (cf. above). A total volume of 100 μl medium per well was used. For the preparation of the FLIPR assay, the culture medium was removed from the plates and 100 μl of assay buffer (133.8 mM NaCl (Sigma, S5886); 4.7 mM KCl (Sigma, P3911); 1.25 mM MgCl2 (Merck, 1.05833.0250); 3.5 mM CaCl2 (Merck, 1.02083.0250); 5 mM glucose (Sigma, G7021); 10 mM Hepes (Sigma, H4034); pH 7.4)) were added to each well in a washing step. Assay buffer was removed, and 100 μl of a solution of the test compound in assay buffer in different concentrations were added into the wells. Further, 100 μl of dye solution (0.09% (v/v) calcium indicator dye, 9.1% (v/v) signal enhancer (from PBX Calcium Assay Kit); in assay buffer) were added into each well. The plates were incubated in the dark at room temperature for 60 min. Meanwhile a 10 μM solution of lonomycin in assay buffer (additionally containing 0.05% fetal calf serum (cf. above); 4° C.) was prepared and stored in the wells of a 96 well microplate (96 well microplate, polypropylene, U-shape (Greiner Bio-One, 650201)). The fluorescence monitoring was performed at 60 measuring points with measurement intervals of 2 sec. After the fifth measuring point, 50 μl of the lonomycin solution were added to each well of the assay plate to give a final lonomycin concentration of 2 μM. For the determination of the IC50 values the minimal fluorescence value was subtracted from the maximal fluorescence value for the fifteenth to fifty-fifth measuring points. The calculation of the IC50 values via the percentage inhibitions of Ca^2+ efflux out of cells (forward mode) effected by the test compound was performed in Biost@t Speed 2.0. “NCX1fw IC50” in Table 2 means the IC50 value (in μM (micromol/liter)) for inhibition of NCX1 in forward mode.

Sprague-Dawley rats = assay: In vivo method for determining the effect on heart contractility (left ventricular dp/dtmax); design: species or system rat; settings: anesthetized male Sprague-Dawley rats, intravenous, vs solvent control
Method: B) In Vivo Method for Determining the Effect on Heart Contractility
Adult male Sprague-Dawley rats (Harlan Winkelmann, Borchen, Germany) weighing 340 to 370 g were anesthetized with pentobarbital (100 mg/kg i.p.) and ventilated with a mixture of oxygen (40%) and room air (60%) at a tidal volume of 1 ml/100 g at 60 breaths/min. Body temperature was maintained at 36.5±0.3° C. with a heating lamp and was monitored with a rectal thermo sensor. Systemic blood pressure was measured in the left carotid artery using a pressure transducer (Combitrans; B. Braun Melsungen AG, Melsungen, Germany) connected to a DC-bridge-amplifier (PLUGSYS/ADC Type 663; Harvard Apparatus GmbH, March-Hugstetten, Germany). The electrocardiogram was measured as lead II via subcutaneously placed electrodes connected to a Heart-Rate-Module (PLUGSYS/HRM Type 669; Harvard Apparatus GmbH, March-Hugstetten, Germany). A micro-tip catheter (2 French, SPR-320; Millar Instruments, Houston, Tex., USA) was placed via the right carotid artery into the left ventricle, and the left ventricular pressure (LVP) and the enddiastolic pressure (EDP) were continuously measured. Registration of the hemodynamic data was performed via an analog digital converter by a personal computer using Notocord software (HEM version 3.5). Left ventricular contractility (dp/dtmax) and relaxation (dp/dtmin) were calculated from the LVP signal. For intravenous administration of the test compounds, the left jugular vein was prepared and a PP-50 catheter was inserted. Test compounds were administered either by intravenous bolus injection or by intravenous infusion by means of an infusion pump (Unita; B. Braun Melsungen AG, Melsungen, Germany). Test compounds were dissolved in a mixture of Glycofurol (75%) and Cremophor (25%), and the solution was further diluted with distilled water (1:4). In a typical experiment, several dosages of the test compound were administered subsequently at increasing doses. Statistical significance of the data obtained with drug vs control experiments, in which solvent was administered, was evaluated with the 2-sided ANOVA test (program Everstat). Increases in left ventricular contractility (percent increase) by example compounds are given in Table 3 in comparison to control experiments in which solvent was administered.

| Structure (SMILES) | IC50 (human NCX1) | Contractility increase (left ventricular contractility) (Sprague-Dawley rats; 0.1 mg/kg) | Contractility increase (left ventricular contractility) (Sprague-Dawley rats; 0.3 mg/kg) | Contractility increase (left ventricular contractility) (Sprague-Dawley rats; 1.0 mg/kg) |
| --- | --- | --- | --- | --- |
| Cc1ccccc1C1CCc2cc(O[C@H]3CC[C@H](N)CC3)ccc2O1.Cl (stereo partly drawn) [Example 156, trans-4-(2-o-Tolyl-chroman-6-yloxy)-cyclohexylamine] | 1.5 µM | 44% | 110% | 171% |
| Cc1ccccc1C1CCc2cc(OC3CCC(C(=O)NCc4ccno4)CC3)ccc2O1 (stereo not shown) [Example 158, N-(Isoxazol-5-ylmethyl)-4-(2-o-tolyl-chroman-6-yloxy)-cyclohexanecarboxamide] | 2.2 µM | 106% | 139% | 146% |
| NCC(=O)N[C@H]1CC[C@H](Oc2ccc3c(c2)CC[C@@H](c2ccccc2)O3)CC1 [Example 159, 2-Amino-N-[trans-4-((S)-2-phenyl-chroman-6-yloxy)-cyclohexyl]-acetamide] | 2.5 µM | 46% | 104% | 140% |
| Cc1ccccc1[C@@H]1CCc2cc(O[C@H]3CC[C@H](C(=O)NCCOP(=O)([O-])[O-])CC3)ccc2O1.[Na+].[Na+] [Example 303, Phosphoric acid mono-(2-{[trans-4-((S)-2-o-tolyl-chroman-6-yloxy)-cyclohexanecarbonyl]-amino}-ethyl) ester disodium salt] | 2.5 µM | 69% | 114% | 172% |

Now from value to molecule, other results behind:

| IC50 (human NCX1) | Structure (SMILES) | Contractility increase (left ventricular contractility) (Sprague-Dawley rats; 0.1 mg/kg) | Contractility increase (left ventricular contractility) (Sprague-Dawley rats; 0.3 mg/kg) | Contractility increase (left ventricular contractility) (Sprague-Dawley rats; 1.0 mg/kg) |
| --- | --- | --- | --- | --- |
| 0.2 µM | Cc1ccccc1C1CCc2cc(OC3CCC(NCc4c(C)nn(C)c4C)CC3)ccc2O1 (stereo not shown) [Example 177, 4-(2-o-Tolyl-chroman-6-yloxy)-N-(1,3,5-trimethylpyrazol-4-ylmethyl)-cyclohexylamine] | 29% | 81% | 134% |
| 10 µM | O=C(N[C@H]1CC[C@H](Oc2ccc3c(c2)CCC(c2ccccc2)O3)CC1)[C@@H]1CCCN1 (stereo partly drawn) [Example 180, (S)—N-[trans-4-(2-Phenyl-chroman-6-yloxy)-cyclohexyl]-pyrrolidine-2-carboxamide] | 26% | 66% | 99% |
| 0.5 µM | Cc1ccccc1[C@@H]1CCc2cc(O[C@H]3CC[C@H](C(=O)NCCO)CC3)ccc2O1 [Example 268, trans-4-((S)-2-o-tolyl-chroman-6-yloxy)-cyclohexanecarboxylic acid (2-hydroxy-ethyl)-amide] | 108% | 154% | 179% |
